#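 Cells were grown in 96-well plates and exposed to each compound for 48 hours at five concentrations; endpoints were interpolated linearly between bracketing concentrations, or set to the highest concentration if not reached. GI50 is the concentration that inhibits growth by half. TGI: total growth inhibition.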
# Key:
# Test in all cases: NCI anticancer screen, dose series, 48 h
# [1] = test system: SF-268 CNS
# [2] = test system: SNB-75 CNS
# [3] = test system: T-47D breast
# [4] = test system: NCI-H460 lung
# [5] = test system: HCT-15 colon
# [6] = test system: OVCAR-3 ovarian
# [7] = test system: UO-31 renal
# [8] = test system: MOLT-4 leukemia
# [9] = test system: EKVX NSCLC
# [10] = test system: K-562 leukemia
SMILES,GI50 [1] [µM],TGI [1] [µM],GI50 [2] [µM],TGI [2] [µM],GI50 [3] [µM],TGI [3] [µM],GI50 [4] [µM],TGI [4] [µM],GI50 [5] [µM],TGI [5] [µM],GI50 [6] [µM],TGI [6] [µM],GI50 [7] [µM],TGI [7] [µM],GI50 [8] [µM],TGI [8] [µM],GI50 [9] [µM],TGI [9] [µM],GI50 [10] [µM],TGI [10] [µM]
OCC1OC(n2cnc3cc(Cl)c(Cl)cc32)C(O)C1O (stereo unspecified),30.7,> 87.9,31.2,> 74.2,26.1,> 71.9,30,> 100,14.8,37.5,22.7,72.3,15.8,40,3.85,> 41.3,20.8,50.8,44.8,> 100
C[C@H]1O[C@@H](O[C@H]2[C@@H](O)C[C@H](O[C@H]3[C@@H](O)C[C@H](O[C@H]4CC[C@]5(C)C6CC[C@]7(C)[C@@H](C8=CC(=O)OC8)CC[C@]7(O)C6CC[C@@H]5C4)O[C@@H]3C)O[C@@H]2C)C[C@H](O)[C@@H]1O (stereo partly specified),0.0159,0.0578,0.0182,0.102,0.0172,0.0608,0.00973,0.0231,0.0257,0.0982,,0.043,0.0181,0.0722,0.0113,0.0341,0.0141,0.0383,0.0159,0.0799
O=C(O)[C@@H](Cc1ccccc1)NS(=O)(=O)c1ccc(-c2ccccc2)cc1,> 100,> 100,> 100,> 100,> 100,> 100,> 100,> 100,> 100,> 100,> 100,> 100,24.9,59.4,> 100,> 100,> 100,> 100,> 100,> 100
N/C(=N/O)NOCCC(N)C(=O)O (stereo unspecified),> 100,> 100,> 100,> 100,> 100,> 100,> 100,> 100,> 100,> 100,> 100,> 100,> 100,> 100,> 100,> 100,> 100,> 100,> 100,> 100
Cc1cccc(Nc2ncc(-c3ccccc3)o2)c1,> 25,> 25,> 25,> 25,> 25,> 25,> 25,> 25,> 25,> 25,> 25,> 25,> 25,> 25,> 25,> 25,> 25,> 25,> 25,> 25
Cc1ccc(O)c(C(=O)/C=C/c2ccccc2)c1,,> 100,,> 100,,> 100,,> 100,,> 100,,> 100,,> 100,,> 100,,> 100,,> 100
CC1(/C=C/c2ccc(-c3ccccc3)cc2)CCn2cnc3ncnc(c32)N1O (stereo unspecified),0.405,15.8,0.387,14.5,0.462,54.3,0.264,8.25,0.146,33.5,0.425,20.7,0.162,1.2,0.347,27.9,0.305,> 100,0.359,> 66.7
CN(N=O)N1C(=O)SCC(c2ccccc2)(c2ccccc2)C1=O,,> 100,,82.2,,> 100,,> 100,,> 100,,> 100,,> 100,,> 100,,> 100,,> 100
c1ccc(OCC[P+](c2ccccc2)(c2ccccc2)c2ccccc2)cc1,2.05,13.5,0.721,5.99,0.265,2.4,1.35,10.4,12,> 100,1.11,7.69,16.9,> 79,3.89,27.2,0.701,> 40.1,0.743,> 85.5
O=C(Nc1n[nH]c2cc(-c3ccc(F)cc3)ccc12)C1CC1,11,> 25,11.1,> 25,6.37,> 21.7,7.47,> 25,5.7,> 25,6.33,20,3.74,> 25,10.4,> 25,12.2,> 25,3.69,> 25
COC1C[C@H](O[C@@H]2C[C@H](O[C@@H]3C[C@H](O[C@@H]4C(=O)c5c(cc6cc(O[C@H]7C[C@@H](O[C@H]8C[C@@H](O)[C@H](O)C(C)O8)[C@H](O)C(C)O7)c(C)c(O)c6c5O)C[C@H]4C(OC)C(=O)[C@@H](O)[C@@H](C)O)OC(C)[C@H]3O)OC(C)[C@@H]2O)OC(C)[C@@H]1O (stereo partly specified),0.0864,> 32.5,0.0622,0.442,0.0701,7,0.0802,> 32.5,2.19,> 32.5,0.0936,0.773,0.294,4.76,0.111,> 32.5,0.122,10.3,0.119,> 32.5
C=C1[C@H](O)C[C@@H](C(C)C(O)CC=C(C)C)[C@@H](O)[C@@H]2C(C)=CC[C@@H]12 (stereo partly specified),> 100,> 100,> 100,> 100,> 100,> 100,> 100,> 100,> 100,> 100,,,> 100,> 100,35.1,> 100,> 100,> 100,53,> 100
O=C(C#Cc1ccccc1)N1CCCCC1,,> 100,,> 100,,> 100,,> 100,,> 100,,> 100,,,,> 100,,> 100,,> 100

# From PubChem BioAssay (NCI)
